According to patent US9630977B2, “Cephalosporin derivatives and pharmaceutical compositions thereof” (Legochem Biosciences, Inc., priority 2011, dated 2017):
In brackets after ≈: the same amount, converted by molar mass.

System: P. aeruginosa 37
Assay: In vitro antibacterial activity test (broth microdilution)
Assay type: cell-based
Details: Pseudomonas aeruginosa, 37, P. aeruginosa 37
Protocol: (§1) To evaluate antibacterial activity of each of the compounds of Examples 1 to 68, in vitro antibacterial activity test was performed.
(§2) The in vitro antibacterial activity was evaluated by measuring MIC90 (ug/mL) of each of the compounds of Examples 1 to 68, which is defined as the lowest concentration of an antibiotic that will inhibit the visible growth of 90% of microorganisms after incubation as compared with a control group to which the antibiotic is not treated. MIC90 values were measured by the broth microdilution method developed by the Clinical and Laboratory Standards Institute (CLSI) (see CLSI M7-A5, Methods for Dilution Antimicrobial Susceptibility Test for Bacteria that Grow Aerobically-Fifth Edition (2000): CLSI, Villanova, Pa.).
(§3) In vitro antibacterial activity was measured with respect to the following 19 clinical isolates: M. catarrhalis; P. aeruginosa (5 strains); K. pneumoniae (6 strains); A. baumannii (3 strains); E. coli (2 strains); A. calcoaceticus; and E. cloacae.
(§4) Test compounds each (the cephalosporin derivative compounds prepared in Examples 1 to 68) were dissolved in DMSO at the concentration of 10,240 ug/mL, were diluted by two fold with DMSO, and then were diluted by twenty fold with sterilized distilled water. The final concentration in the antibacterial activity test was in the range of […] to 128 ug/mL, and the final concentration of DMSO used as an adjuvant was 2.5% (V/V).

| Compound | MIC90 [µg/mL] |
| --- | --- |
| CC(C)(O/N=C(\C(=O)N[C@@H]1C(=O)N2C(C(=O)[O-])=C(C[n+]3cnc(N)c(NCCNC(=N)N)c3)CSC12)c1csc(N)n1)C(=O)O (some centres unmarked) [Compound 40] | 8 (≈ 12.1 µM) |

Same assay, conditions: Pseudomonas aeruginosa, 37, P. aeruginosa 37; read-out: MIC90

| Compound | MIC90 [µg/mL] |
| --- | --- |
| C[C@H](O/N=C(\C(=O)N[C@@H]1C(=O)N2C(C(=O)[O-])=C(C[n+]3cnc(N)c(NCCNC(=O)c4ccc(O)c(O)c4)c3)CSC12)c1csc(N)n1)C(=O)O (some centres unmarked) [Compound 34] | 2 (≈ 2.69 µM) |

System: M. catarrhalis 2524
Assay: as above
Assay type: cell-based
Details: Moraxella catarrhalis; M. catarrhalis 2524; read-out: MIC90
Protocol: as §1, §2, §3, §4

| Compound | MIC90 [µg/mL] |
| --- | --- |
| C[C@H](O/N=C(\C(=O)N[C@@H]1C(=O)N2C(C(=O)[O-])=C(C[n+]3cnc(N)c(NCCNC(=O)c4ccc(O)c(O)c4)c3)CSC12)c1csc(N)n1)C(=O)O (some centres unmarked) [Compound 34] | 1 (≈ 1.35 µM) |

System: E. coli β4
Assay: as above
Assay type: cell-based
Details: Escherichia coli
Protocol: as §1, §2, §3, §4

| Compound | MIC90 [µg/mL] |
| --- | --- |
| CC(C)(O/N=C(\C(=O)N[C@@H]1C(=O)N2C(C(=O)[O-])=C(C[n+]3cnc(N)c(NCCNC(=N)N)c3)CSC12)c1csc(N)n1)C(=O)O (some centres unmarked) [Compound 40] | 8 (≈ 12.1 µM) |

Same assay, conditions: Escherichia coli, read-out: MIC90

| Compound | MIC90 [µg/mL] |
| --- | --- |
| C[C@H](O/N=C(\C(=O)N[C@@H]1C(=O)N2C(C(=O)[O-])=C(C[n+]3cnc(N)c(NCCNC(=O)c4ccc(O)c(O)c4)c3)CSC12)c1csc(N)n1)C(=O)O (some centres unmarked) [Compound 34] | 1 (≈ 1.35 µM) |

System: E. coli AG100
Assay: as above
Assay type: cell-based
Details: Escherichia coli, AG100
Protocol: as §1, §2, §3, §4

| Compound | MIC90 [µg/mL] |
| --- | --- |
| CC(C)(O/N=C(\C(=O)N[C@@H]1C(=O)N2C(C(=O)[O-])=C(C[n+]3cnc(N)c(NCCNC(=N)N)c3)CSC12)c1csc(N)n1)C(=O)O (some centres unmarked) [Compound 40] | 4 (≈ 6.04 µM) |

Same assay, conditions: Escherichia coli, AG100, E. coli AG100; read-out: MIC90

| Compound | MIC90 [µg/mL] |
| --- | --- |
| C[C@H](O/N=C(\C(=O)N[C@@H]1C(=O)N2C(C(=O)[O-])=C(C[n+]3cnc(N)c(NCCNC(=O)c4ccc(O)c(O)c4)c3)CSC12)c1csc(N)n1)C(=O)O (some centres unmarked) [Compound 34] | < 0.0625 |

System: P. aeruginosa 43
Assay: as above
Assay type: cell-based
Details: Pseudomonas aeruginosa, 43
Protocol: as §1, §2, §3, §4

| Compound | MIC90 [µg/mL] |
| --- | --- |
| CC(C)(O/N=C(\C(=O)N[C@@H]1C(=O)N2C(C(=O)[O-])=C(C[n+]3cnc(N)c(NCCNC(=N)N)c3)CSC12)c1csc(N)n1)C(=O)O (some centres unmarked) [Compound 40] | 32 (≈ 48.3 µM) |

Same assay, conditions: Pseudomonas aeruginosa; P. aeruginosa 43; read-out: MIC90

| Compound | MIC90 [µg/mL] |
| --- | --- |
| C[C@H](O/N=C(\C(=O)N[C@@H]1C(=O)N2C(C(=O)[O-])=C(C[n+]3cnc(N)c(NCCNC(=O)c4ccc(O)c(O)c4)c3)CSC12)c1csc(N)n1)C(=O)O (some centres unmarked) [Compound 34] | 0.5 (≈ 0.673 µM) |

System: E. cloacae β19
Assay: as above
Assay type: cell-based
Details: Enterobacter cloacae
Protocol: as §1, §2, §3, §4

| Compound | MIC90 [µg/mL] |
| --- | --- |
| CC(C)(O/N=C(\C(=O)N[C@@H]1C(=O)N2C(C(=O)[O-])=C(C[n+]3cnc(N)c(NCCNC(=N)N)c3)CSC12)c1csc(N)n1)C(=O)O (some centres unmarked) [Compound 40] | 32 (≈ 48.3 µM) |

Same assay, conditions: Enterobacter cloacae, read-out: MIC90

| Compound | MIC90 [µg/mL] |
| --- | --- |
| C[C@H](O/N=C(\C(=O)N[C@@H]1C(=O)N2C(C(=O)[O-])=C(C[n+]3cnc(N)c(NCCNC(=O)c4ccc(O)c(O)c4)c3)CSC12)c1csc(N)n1)C(=O)O (some centres unmarked) [Compound 34] | 16 (≈ 21.5 µM) |

System: A. baumannii 46
Assay: as above
Assay type: cell-based
Details: Acinetobacter baumannii, 46, A. baumannii 46
Protocol: as §1, §2, §3, §4

| Compound | MIC90 [µg/mL] |
| --- | --- |
| CC(C)(O/N=C(\C(=O)N[C@@H]1C(=O)N2C(C(=O)[O-])=C(C[n+]3cnc(N)c(NCCNC(=N)N)c3)CSC12)c1csc(N)n1)C(=O)O (some centres unmarked) [Compound 40] | 2 (≈ 3.02 µM) |

Same assay, conditions: Acinetobacter baumannii; A. baumannii 46; read-out: MIC90

| Compound | MIC90 [µg/mL] |
| --- | --- |
| C[C@H](O/N=C(\C(=O)N[C@@H]1C(=O)N2C(C(=O)[O-])=C(C[n+]3cnc(N)c(NCCNC(=O)c4ccc(O)c(O)c4)c3)CSC12)c1csc(N)n1)C(=O)O (some centres unmarked) [Compound 34] | 2 (≈ 2.69 µM) |

System: P. aeruginosa 6065Y
Assay: as above
Assay type: cell-based
Details: Pseudomonas aeruginosa, 6065Y
Protocol: as §1, §2, §3, §4

| Compound | MIC90 [µg/mL] |
| --- | --- |
| CC(C)(O/N=C(\C(=O)N[C@@H]1C(=O)N2C(C(=O)[O-])=C(C[n+]3cnc(N)c(NCCNC(=N)N)c3)CSC12)c1csc(N)n1)C(=O)O (some centres unmarked) [Compound 40] | 16 (≈ 24.1 µM) |

Same assay, conditions: Pseudomonas aeruginosa, read-out: MIC90

| Compound | MIC90 [µg/mL] |
| --- | --- |
| C[C@H](O/N=C(\C(=O)N[C@@H]1C(=O)N2C(C(=O)[O-])=C(C[n+]3cnc(N)c(NCCNC(=O)c4ccc(O)c(O)c4)c3)CSC12)c1csc(N)n1)C(=O)O (some centres unmarked) [Compound 34] | 1 (≈ 1.35 µM) |

System: K. pneumoniae β14
Assay: as above
Assay type: cell-based
Details: Klebsiella pneumoniae
Protocol: as §1, §2, §3, §4

| Compound | MIC90 [µg/mL] |
| --- | --- |
| CC(C)(O/N=C(\C(=O)N[C@@H]1C(=O)N2C(C(=O)[O-])=C(C[n+]3cnc(N)c(NCCNC(=N)N)c3)CSC12)c1csc(N)n1)C(=O)O (some centres unmarked) [Compound 40] | 8 (≈ 12.1 µM) |

Same assay, conditions: Klebsiella pneumoniae, read-out: MIC90

| Compound | MIC90 [µg/mL] |
| --- | --- |
| C[C@H](O/N=C(\C(=O)N[C@@H]1C(=O)N2C(C(=O)[O-])=C(C[n+]3cnc(N)c(NCCNC(=O)c4ccc(O)c(O)c4)c3)CSC12)c1csc(N)n1)C(=O)O (some centres unmarked) [Compound 34] | 128 (≈ 172 µM) |

System: P. aeruginosa 1912E
Assay: as above
Assay type: cell-based
Details: Pseudomonas aeruginosa, 1912E
Protocol: as §1, §2, §3, §4

| Compound | MIC90 [µg/mL] |
| --- | --- |
| CC(C)(O/N=C(\C(=O)N[C@@H]1C(=O)N2C(C(=O)[O-])=C(C[n+]3cnc(N)c(NCCNC(=N)N)c3)CSC12)c1csc(N)n1)C(=O)O (some centres unmarked) [Compound 40] | 4 (≈ 6.04 µM) |

Same assay, conditions: Pseudomonas aeruginosa, 1912E, read-out: MIC90

| Compound | MIC90 [µg/mL] |
| --- | --- |
| C[C@H](O/N=C(\C(=O)N[C@@H]1C(=O)N2C(C(=O)[O-])=C(C[n+]3cnc(N)c(NCCNC(=O)c4ccc(O)c(O)c4)c3)CSC12)c1csc(N)n1)C(=O)O (some centres unmarked) [Compound 34] | 32 (≈ 43.1 µM) |

System: P. aeruginosa 40
Assay: as above
Assay type: cell-based
Details: Pseudomonas aeruginosa, 40
Protocol: as §1, §2, §3, §4

| Compound | MIC90 [µg/mL] |
| --- | --- |
| CC(C)(O/N=C(\C(=O)N[C@@H]1C(=O)N2C(C(=O)[O-])=C(C[n+]3cnc(N)c(NCCNC(=N)N)c3)CSC12)c1csc(N)n1)C(=O)O (some centres unmarked) [Compound 40] | 8 (≈ 12.1 µM) |

Same assay, conditions: Pseudomonas aeruginosa, 40, P. aeruginosa 40; read-out: MIC90

| Compound | MIC90 [µg/mL] |
| --- | --- |
| C[C@H](O/N=C(\C(=O)N[C@@H]1C(=O)N2C(C(=O)[O-])=C(C[n+]3cnc(N)c(NCCNC(=O)c4ccc(O)c(O)c4)c3)CSC12)c1csc(N)n1)C(=O)O (some centres unmarked) [Compound 34] | 0.5 (≈ 0.673 µM) |

System: A. calcoaceticus ATCC15473
Assay: as above
Assay type: cell-based
Details: Acinetobacter calcoaceticus, ATCC15473, A. calcoaceticus ATCC15473
Protocol: as §1, §2, §3, §4

| Compound | MIC90 [µg/mL] |
| --- | --- |
| CC(C)(O/N=C(\C(=O)N[C@@H]1C(=O)N2C(C(=O)[O-])=C(C[n+]3cnc(N)c(NCCNC(=N)N)c3)CSC12)c1csc(N)n1)C(=O)O (some centres unmarked) [Compound 40] | 0.25 (≈ 0.377 µM) |

Same assay, conditions: Acinetobacter calcoaceticus; A. calcoaceticus ATCC15473; read-out: MIC90

| Compound | MIC90 [µg/mL] |
| --- | --- |
| C[C@H](O/N=C(\C(=O)N[C@@H]1C(=O)N2C(C(=O)[O-])=C(C[n+]3cnc(N)c(NCCNC(=O)c4ccc(O)c(O)c4)c3)CSC12)c1csc(N)n1)C(=O)O (some centres unmarked) [Compound 34] | 0.5 (≈ 0.673 µM) |

System: K. pneumoniae 2011E
Assay: as above
Assay type: cell-based
Details: Klebsiella pneumoniae, 2011E
Protocol: as §1, §2, §3, §4

| Compound | MIC90 [µg/mL] |
| --- | --- |
| CC(C)(O/N=C(\C(=O)N[C@@H]1C(=O)N2C(C(=O)[O-])=C(C[n+]3cnc(N)c(NCCNC(=N)N)c3)CSC12)c1csc(N)n1)C(=O)O (some centres unmarked) [Compound 40] | 16 (≈ 24.1 µM) |

Same assay, conditions: Klebsiella pneumoniae, 2011E, K. pneumoniae 2011E; read-out: MIC90

| Compound | MIC90 [µg/mL] |
| --- | --- |
| C[C@H](O/N=C(\C(=O)N[C@@H]1C(=O)N2C(C(=O)[O-])=C(C[n+]3cnc(N)c(NCCNC(=O)c4ccc(O)c(O)c4)c3)CSC12)c1csc(N)n1)C(=O)O (some centres unmarked) [Compound 34] | 0.25 (≈ 0.337 µM) |

System: A. baumannii 49
Assay: as above
Assay type: cell-based
Details: Acinetobacter baumannii, 49, A. baumannii 49
Protocol: as §1, §2, §3, §4

| Compound | MIC90 [µg/mL] |
| --- | --- |
| CC(C)(O/N=C(\C(=O)N[C@@H]1C(=O)N2C(C(=O)[O-])=C(C[n+]3cnc(N)c(NCCNC(=N)N)c3)CSC12)c1csc(N)n1)C(=O)O (some centres unmarked) [Compound 40] | 128 (≈ 193 µM) |

Same assay, conditions: Acinetobacter baumannii; A. baumannii 49; read-out: MIC90

| Compound | MIC90 [µg/mL] |
| --- | --- |
| C[C@H](O/N=C(\C(=O)N[C@@H]1C(=O)N2C(C(=O)[O-])=C(C[n+]3cnc(N)c(NCCNC(=O)c4ccc(O)c(O)c4)c3)CSC12)c1csc(N)n1)C(=O)O (some centres unmarked) [Compound 34] | 128 (≈ 172 µM) |

System: A. baumannii 52
Assay: as above
Assay type: cell-based
Details: Acinetobacter baumannii, 52
Protocol: as §1, §2, §3, §4

| Compound | MIC90 [µg/mL] |
| --- | --- |
| CC(C)(O/N=C(\C(=O)N[C@@H]1C(=O)N2C(C(=O)[O-])=C(C[n+]3cnc(N)c(NCCNC(=N)N)c3)CSC12)c1csc(N)n1)C(=O)O (some centres unmarked) [Compound 40] | 128 (≈ 193 µM) |

Same assay, conditions: Acinetobacter baumannii; A. baumannii 52; read-out: MIC90

| Compound | MIC90 [µg/mL] |
| --- | --- |
| C[C@H](O/N=C(\C(=O)N[C@@H]1C(=O)N2C(C(=O)[O-])=C(C[n+]3cnc(N)c(NCCNC(=O)c4ccc(O)c(O)c4)c3)CSC12)c1csc(N)n1)C(=O)O (some centres unmarked) [Compound 34] | 128 (≈ 172 µM) |
